What was measured:
Format in all cases: in vivo
[1] = tested on: Mexican bean beetle (Epilachna varivestis, Muls.); assay: Mexican Bean Beetle Leaf Spray Test; parameters: key: A: excellent control; B: partial control; C: no control; conditions: 500 ppm, three days
Experimental: (§1) Suspensions of the test compounds were prepared by dissolving one gram of compound in 50 milliliters of acetone in which had been dissolved 0.1 gram (10 percent of the weight of compound) of an alkylphenoxy polyethoxyethanol surfactant, as an emulsifying or dispersing agent. The resulting solution was mixed into 150 milliliters of water to give roughly 200 milliliters of a suspension containing the compound in finely divided form. The thus-prepared stock suspension contained 0.5 percent by weight of compound. The test concentrations in parts per million by weight employed in the tests described hereinbelow were obtained by appropriate dilutions of the stock suspension with water. The test procedures were as follows:
Fourth instar larvae of the Mexican bean beetle (Epilachna varivestis, Muls.), reared on Tendergreen bean plants at a temperature of 80±5° F. and 50±5 percent relative humidity, were the test insects.
The test compounds were formulated by diluting the stock suspension with water to give a suspension containing 500 parts of test compound per million parts of final formulation. Potted Tendergreen bean plants of standard height and age were placed on a revolving turntable and sprayed with 100-110 milliliters of test compound formulation by use of a DeVilbiss spray gun set at 10 psig air pressure. The application, which lasted 25 seconds, was sufficient to wet plants to run-off. As a control, 100-110 milliliters of a water-acetone-emulsifier solution containing no test compound were also sprayed on infested plants. When dry, the paired leaves were separated and each was placed in a 9 centimeter Petri dish lined with moistened filter paper. Five randomly selected larvae were introduced into each dish, and the dishes were closed. The closed dishes were labeled and held at a temperature of 80±5° F. for three days. Although the larvae could easily consume the leaf within 24 to 48 hours, no more food was added. Larvae which were unable to move the length of the body, even upon stimulation, were considered dead.
(§2) In these tests the pesticidal activity of the compounds against aphid, mite, Southern Armyworm, Bean Beetle and house fly was rated as follows: […]

[2] = tested on: bean aphid (Aphis fabae Scop.); assay: Bean Aphid Foliage Spray Test; parameters: key: A: excellent control; B: partial control; C: no control; conditions: 500 ppm, 24 hour holding period
Experimental: as §1
Adults and nymphal stages of the bean aphid (Aphis fabae Scop.) reared on potted dwarf nasturtium plants at 65°-70° F. and 50-70 percent relative humidity, constituted the test insects. For testing purposes, the number of aphids per pot was standardized to 100-150 by trimming plants containing excess aphids.
The test compounds were formulated by diluting the stock suspension with water to give a suspension containing 500 parts of test compound per million parts of final formulation.
The potted plants (one pot per compound tested) infested with 100-150 aphids, were placed on a revolving turntable and sprayed with 100-110 milliliters of test compound formulation by use of a DeVilbiss spray gun set at 40 psig. air pressure. This application, which tested 25 seconds, was sufficient to wet the plants to run-off. As a control, 100-110 milliliters of a water-acetone-emulsifier solution containing no test compound were also sprayed on infested plants. After spraying, the pots were placed on their sides on a sheet of white standard mimeograph paper which had been previously ruled to facilitate counting. Temperature and humidity in the test room during the 24 hour holding period were 65°-70° F. and 50-70 percent, respectively. Aphids which fell onto the paper and were unable to remain standing after being uprighted were considered dead. Aphids remaining on the plants were observed closely for movement and those which were unable to move the length of the body upon stimulation by prodding were considered dead. Percent mortality was recorded for various concentration levels.
as §2

[3] = tested on: two-spotted mite (Tetranychus urticae Koch); assay: Mite Foliage Spray Test; parameters: key: A: excellent control; B: partial control; C: no control; conditions: 500 ppm, six days
Experimental: as §1
Adults and nymphal stages of the two-spotted mite (Tetranychus urticae Koch), reared on Tendergreen bean plants at 80±5 percent relative humidity, were the test organisms. Infested leaves from a stock culture were placed on the primary leaves of two bean plants six to eight inches in height, growing in a two-and-a-half inch clay pot. 150-200 Mites, a sufficient number for testing, transferred from the excised leaves to the fresh plants in a period of twenty four hours. Following the twenty four hour transfer period, the excised leaves were removed from the infested plants. The test compounds were formulated by diluting the stock suspension with water to give a suspension containing 500 parts of test compound per million parts of final formulation. The potted plants (one pot per compound) were placed on a revolving turntable and sprayed with 100-110 milliliters of test compound formulation by use of a DeVilbiss spray gun set at 40 psig. air pressure. This application, which lasted 25 seconds, was sufficient to wet the plants to run-off. As a control, 100-110 milliliters of a water solution containing acetone and emulsifier in the same concentrations as the test compound formulation, but containing no test compound, were also sprayed on infested plants. The sprayed plants were held at 80±5 percent relative humidity for six days, after which a mortality count of motile forms was made. Microscopic examination for motile forms was made on the leaves of the test plants. Any individual which was capable of locomotion upon prodding was considered living.
as §2

[4] = tested on: house flies (Musca domestica, L.); assay: Fly Bait Test; parameters: key: A: excellent control; B: partial control; C: no control; conditions: 500 ppm in sugar solution, twenty four hours
Experimental: as §1
Four to six day old adult house flies (Musca domestica, L.) reared according to the specifications of the Chemical Specialities Manufacturing Association (Blue Book, McNair-Dorland Co., N.Y. 1954; pages 243-244, 261) under controlled conditions of 80±5° F. and 50±5 percent relative humidity, were the test insects. The flies were immobilized by anesthetizing with carbon dioxide and twenty five immobilized individuals,males and females, were transferred to a cage consisting of a standard food strainer about five inches in diameter which was inverted over a wrapping-paper-covered surface. The test compounds were formulated by diluting the stock suspension with a 10 percent (by weight) sugar solution to give a suspension containing 500 parts of test compound per million parts of final formulation, by weight. Ten milliliters of the test formulation were added to a souffle cup containing a one-inch square of an absorbent cotton pad. This bait cup was introduced and centered on the blotting paper under the food strainer prior to admitting the anesthetized flies. The caged flies were allowed to feed on the bait for twenty four hours, at a temperature of 80±5° F. and the relative humidity of 50±5 percent.
as §2

[5] = tested on: root-knot nematode (Meloidogyne incognita var. acrita); assay: Nematode Test; parameters: key: 1: severe galling; equal to untreated control; 2: moderate galling; 3: light galling; 4: very light galling; 5: no galling; conditions: 10 ml of 500 ppm formulation per jar (approx. 180 cc soil), cucumber indicator crop, approx. three weeks
Experimental: as §1
Infective migratory larvae of the root-knot nematode, (Meloidogyne incognita var. acrita) were reared in the greenhouse on roots of Rutgers variety tomato plant. Infected tomato plants were removed from the culture and the roots were chopped very finely. A small amount of inoculum from the roots was added to pint Mason jars containing approximately 180 cc of soil. The jars containing the inoculum and soil were capped and incubated for one week at room temperature. During this period eggs of the nematode hatched and the larvae forms migrated into the soil.
The test compounds were formulated by diluting the stock suspension with water to give a suspension containing 500 parts of test compound per million parts of final formulation. 10 milliliters of the test formulation was added to each of two jars for each dosage treated. As a control 10 milliliters of a water-acetone-emulsifier solution containing no test compound was also added to jars containing nematode larvae. The jars were capped and the contents thoroughly mixed on a kale mill for five minutes. The jars remained capped at room temperature for a period of 48 hours and the contents were then transferred to 3 inch pots. Subsequently, the pots were seeded to cucumber as an indicator crop and placed in the green house where they were cared for in the normal fashion for growing potted cucumber for approximately three weeks. These cucumber plants were then removed from the pots, the soil washed from the roots and the amount of galling visually rated.
The nematocidal toxicity has the following ratings;

[6] = tested on: southern armyworm (Prodenia eridania, (Cram.)); assay: Southern Armyworm Leaf Spray Test; parameters: key: A: excellent control; B: partial control; C: no control; conditions: 500 ppm, three days
Experimental: as §1
Larvae of the southern armyworm (Prodenia eridania, (Cram.)), reared on Tendergreen bean plants at a temperature of 80±5° F. and a relative humidity of 50±5 percent, constituted the test insects.
The test compounds were formulated by diluting the stock suspension with water to give a suspension containing 500 parts of test compound per million parts of final formulation. Potted Tendergreen bean plants of standard height and age were placed on a revolving turntable and sprayed with 100-110 milliliters of test compound formulation by use of a DeVilbiss spray gun set at 10 psig air pressure. This application, which tested 25 seconds, was sufficient to wet plants to run-off. As a control, 100-110 milliliters of a water-acetone-emulsifier solution containing no test compound were also sprayed on infested plants. When dry, the paired leaves were separated and each one was placed in a 9 centimeter Petri dish lined with moistened filter paper. Five randomly selected larvae were introduced into each dish and the dishes were closed. The closed dishes were labeled and held at 80°-85° F. for three days. Although the larvae could easily consume the whole leaf within twenty-four hours, no more food was added. Larvae which were unable to move the length of the body, even upon stimulation by prodding, were considered dead. Percent mortality was recorded for various concentration levels.
as §2

Row | SMILES | Mexican Bean Beetle control rating [1] | Bean Aphid control rating [2] | 2-Spotted Mite control rating [3] | House-Fly control rating [4] | Root-Knot Nematode galling rating [5] | Southern Armyworm control rating [6]
1 | CC(=NOC(=O)N(C)SSN(C)C(=O)ON=C(C)[S+](C)[O-])[S+](C)[O-] (stereo not shown) [N,N'--Bis-[1-Methylsulfinylacetaldehyde O--(N--methylcarbamoyl)oxime] disulfide] | A | C | C | A | 1 | B
2 | CN=C1SC(=NOC(=O)N(C)SSN(C)C(=O)ON=C2SC(=NC)SC2(C)C)C(C)(C)S1 [N,N'--Bis-[2-Methylimino-4,4-dimethyl-5-(O--(N--methyl-carbamoyl)oximino-1,3-dithiolane]disulfide] | A | A | B | A | 4 | A
3 | CC(C)N1C(=O)C(C)(C)SC1=NOC(=O)N(C)SSN(C)C(=O)ON=C1SC(C)(C)C(=O)N1C(C)C [N,N'--Bis-[3-Isopropyl-5,5-dimethyl-2-(O--(N--methylcarbamoyl)oximino)-1,3-thiazolidin-4-one] disulfide] | A | A | C | C | – | B
4 | CC(=NOC(=O)N(C)SSN(C)C(=O)ON=C(C)SC(C)C)SC(C)C [N,N'-Bis-[1-Isopropylthioacetaldehyde O-(N-methylcarbamoyl)oxime]disulfide] | A | A | A | A | 4 | A
5 | CN(SSN(C)C(=O)ON=CC(C)(C)S(C)(=O)=O)C(=O)ON=CC(C)(C)S(C)(=O)=O [N,N'-Bis-[2-Methylsulfonyl-2-methylpropionaldehyde O-(N-methylcarbamoyl)oxime]disulfide] | C | C | B | A | 4 | C
6 | CN(SSN(C)C(=O)ON=C1SCCS1)C(=O)ON=C1SCCS1 [N,N'-bis-[2-(O-(N-Methylcarbamoyl)oximino)-1,3-dithiolane]disulfide] | A | A | C | A | 5 | A
7 | CN(SSN(C)C(=O)ON=CC(C)(C)C#N)C(=O)ON=CC(C)(C)C#N [N,N'-bis-[2-Cyano-2-methylpropionaldehyde O-(N-methylcarbamoyl)oxime]disulfide] | A | A | A | A | 4 | A
8 | CSC(C)(C)C=NOC(=O)N(C)SSN(C)C(=O)ON=CC(C)(C)SC [N,N'-bis-[2-methylthio-2-methylpropionaldehyde O-(N-methylcarbamoyl)oxime]disulfide] | A | A | A | A | 5 | A
9 | CN1CCSC(=NOC(=O)N(C)SSN(C)C(=O)ON=C2SCCN(C)C2=O)C1=O [N,N'-bis-[4-Methyl-2-(O-(N-methylcarbamoyl)oximino)tetrahydro-1,4-thiazin-3-one]disulfide] | A | A | A | A | – | A
10 | CC1OCSC1=NOC(=O)N(C)SSN(C)C(=O)ON=C1SCOC1C (stereo not shown) [N,N'-bis-[5-Methyl-4-(O-(N-methylcarbamoyl)oximino)-1,3-oxathiolane]disulfide] | A | A | A | A | 1 | A
